Tested on: MatLyLu mouse prostate cancer cells
Assay: Apoptosis of camptothecin-pretreated MatLyLu cells verified by conventional flow cytometry (FITC-annexin V / propidium iodide)
Assay type: cell-based
Details: MatLyLu cells pretreated with camptothecin
Procedure: MatLyLu […] prostate cancer cells pretreated with camptothecin were employed as a positive control. It was verified by conventional flow cytometry that more than about 80% of the camptothecin-treated cells undergo apoptosis (i.e. >80% of the treated cells were FITC-annexin V^+ positive and propidium iodide negative). The camptothecin-treated cells were then labeled with the AF647-conjugated annexin-V and injected intravenously into the mouse. The circulating annexin-V^+ cells were measured by focusing a He—Ne laser beam having a wavelength of 633 nm through a slit onto an ear vessel (typically a small artery) and confocally detecting the fluorescent bursts (peaks) as individual cells flowed through the probe beam. The emitted fluorescence was detected by a photomultiplier tube and was digitized for analysis. The confocal detection of the emitted fluorescence allowed continuous monitoring over the measurement period of the labeled cells flowing through the vessel.

Compound: CC[C@@]1(O)C(=O)OCc2c1cc1n(c2=O)Cc2cc3ccccc3nc2-1 [camptothecin]
- treated cells undergoing apoptosis (FITC-annexin V positive and propidium iodide negative): more than 80%
